Here are results for two molecules from patent US20150306165A1, “PLANT EXTRACT COMPOSITION FOR INHIBITING ADIPOCYTES, REDUCING BODY FAT, PROMOTING WEIGHT LOSS AND INCREASING LIPID METABOLISM AS WELL AS APPLICATION THEREOF” (CALIWAY BIOMEDICAL CO., LTD., priority 2014, published 2015).

The structures appear in SMILES notation. Marks after values point to notes of the source that are not given here.

Assay [1] is described as follows: Animal assay (I): high fat diet rats, weight gain and body fat. In kind it is in vivo, Sprague-Dawley (SD) male rats. To be noted: positive control group. As for the experimental part:
Sprague-Dawley (SD) male rats were used in this example. There were six groups for test, respectively as a normal group, an obese group, a positive control group (Orlistat®, 18.6 mg/kg BW), a low-dose experimental group (the formulation LB004: 223.2 mg/kg BW), a medium-dose experimental group (the formulation LB004: 446.4 mg/kg BW), and a high-dose experimental group (the formulation LB004: 892.8 mg/kg BW). Ten male rats were used in each group. During the 8-week experiment period, high fat diets were fed ad libitum for all groups except […]. Three formulation LB004 doses of the present invention were orally given simultaneously during the experiment and body weight loss and lipid mass reduction were evaluated. Bodyweight, food and water intake were recorded weekly. In the end of the test, total amount of fat and the percentage of fat dry weight were determined.
In the end of the experiment, the rats were sacrificed. Epididymis fat, perinephric fat, and mesenteric fat were weighted and the total amount of internal fat was calculated. In addition, the fat of groin and the extraperitoneal fat were weighted to calculate the amount of subcutaneous fat.
In addition, the wet weights of rat bodies were weighed. Then the rat bodies were dried in an oven at 105° C. to constant dry weight for measuring dry weights of the rat bodies. The rat bodies were pulverized by uniform homogenizer. The percentage of dry weight and the amount of crude fat of whole animals is calculated by diethyl ether extraction at 2 to 3 different sampling points.

A short description of assay [2]: Animal assay (IV): high fat diet mice, 8 weeks, weight gain and fat. In kind it is in vivo, B6 strain male mice. As for the experimental part:
B6 strain male mice were used in this example. There were five groups for test, respectively as the obese group, the resveratrol (61.5 mg/kg BW), the green tea extract (123 mg/kg BW), and experimental groups such as the formulation LB001 (338.25 mg/kg BW) and the formulation LB0008 (326 mg/kg BW). Five male animals were used in each group. During the test, high fat diets and experimental substrates were fed for all groups to induce obesity during eight weeks. In the experimental duration, weight and the average daily intake were recorded. In the end of the experiment, the mice were sacrificed to weight epididymis fat, perinephric fat, and mesenteric fat and calculate the total amount of visceral fat; groin fat and extra-abdominal fat were weighed to calculate the amount of subcutaneous fat.

On to `CCCCCCCCCCC[C@@H](C[C@@H]1OC(=O)[C@H]1CCCCCC)OC(=O)[C@H](CC(C)C)NC=O` [Orlistat®, Orlistat], for which, in assay [1] (18.6 mg/kg B.W., 8 weeks), the “fat (dry weight)” value is given as 31.6 ± 6.0^a %, the total fat mass was 38.1 ± 8.8^c g and the total weight gain is reported as 240.1 ± 24.4^c g. In assay [1] (18.6 mg/kg BW), the “body fat decrease compared with the obese group” value worked out at 23.9%, the “body weight decline compared with the obese group” value was found to be 12.0% and the “decrease of percentage of fat dry weight compared with the obese group” value turned out to be 17.4%.
On to `Oc1ccc(C=Cc2cc(O)cc(O)c2)cc1` [resveratrol], for which, in assay [2] (resveratrol 61.5 mg/kg BW, FIG. 10), the “visceral fat, subcutaneous fat, and total fat mass compared with the obese group” value is on record as “no statistical difference”. For the same molecule, the “inhibitory effect on weight gain” value in assay [2] (resveratrol alone 61.5 mg/kg BW, FIG. 9) is “poor and had no statistical difference from the obese group”.
